Several values for one entry are separate records, joined by “and”; a condition that tells them apart may be missing. Identical values can stand only once.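 In this assay, cells in 96-well plates receive the compound at five concentrations for 48 hours. Endpoints are linearly interpolated between the surrounding concentrations. GI50 marks 50% less growth. The concentration for full growth arrest is given as TGI.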
How the values were obtained:
Assay in all cases: NCI anticancer screen, dose series, 48 h
EKVX NSCLC = test system: EKVX NSCLC
CCRF-CEM leukemia = test system: CCRF-CEM leukemia
K-562 leukemia = test system: K-562 leukemia
SF-295 CNS = test system: SF-295 CNS
OVCAR-5 ovarian = test system: OVCAR-5 ovarian
HCT-116 colon = test system: HCT-116 colon
CAKI-1 renal = test system: CAKI-1 renal
SK-MEL-5 melanoma = test system: SK-MEL-5 melanoma
HT29 colon = test system: HT29 colon
ACHN renal = test system: ACHN renal

Compound | TGI (EKVX NSCLC) | TGI (CCRF-CEM leukemia) | TGI (K-562 leukemia) | TGI (SF-295 CNS) | TGI (OVCAR-5 ovarian) | TGI (HCT-116 colon) | TGI (CAKI-1 renal) | TGI (SK-MEL-5 melanoma) | TGI (HT29 colon) | TGI (ACHN renal) | GI50 (EKVX NSCLC) | GI50 (CCRF-CEM leukemia) | GI50 (OVCAR-5 ovarian) | GI50 (HCT-116 colon) | GI50 (CAKI-1 renal) | GI50 (SK-MEL-5 melanoma) | GI50 (HT29 colon) | GI50 (ACHN renal) | GI50 (K-562 leukemia) | GI50 (SF-295 CNS)
Cc1c(C(=O)CC(=O)C(=O)Nc2cc(Cl)ccc2Cl)[n+](=O)c2ccccc2n1[O-] | > 100 µM | > 100 µM | > 100 µM | > 100 µM | > 100 µM | > 100 µM | > 100 µM | > 100 µM | > 100 µM | > 100 µM |  |  |  |  |  |  |  |  |  | 
CC(C(=O)O)c1ccc(-c2ccccc2)c(F)c1 (centres undefined) | > 100 µM | > 100 µM | > 100 µM | > 100 µM | > 100 µM | > 100 µM | > 100 µM | > 100 µM | > 100 µM | > 100 µM |  |  |  |  |  |  |  |  |  | 
Clc1ccc2ns[s+]c2c1 | > 100 µM | > 81.9 µM | > 100 µM | > 100 µM | > 100 µM | > 100 µM | > 100 µM | > 96.2 µM | > 100 µM | > 94.3 µM |  |  |  |  |  |  |  |  |  | 
S=P(N1CCCC1)(N1CC1)N1CC1 | > 100 µM | > 100 µM | > 100 µM | > 100 µM | > 100 µM | > 100 µM | > 100 µM | > 100 µM | > 100 µM | > 100 µM |  |  |  |  |  |  |  |  |  | 
CCCCCCNC(=O)n1cc(F)c(=O)[nH]c1=O | > 100 µM | 26.7 µM |  |  | 37.2 µM | 15.3 µM | 18.4 µM | 27.1 µM | 19.3 µM | 23 µM | 21.1 µM | 3.2 µM | 12.8 µM | 1.99 µM | 1.64 µM | 3.54 µM | 2.43 µM | 4.86 µM |  | 
Oc1c(Cl)cc(Cl)cc1Sc1cc(Cl)cc(Cl)c1O | 14.1 µM and 9.1 µM | 23.4 µM and 25 µM | 12 µM and 23.5 µM | 6.47 µM and 6.51 µM | 17.9 µM and 14.2 µM | 9 µM and 6.51 µM | 9.13 µM and 5.93 µM | 4.04 µM and 4.03 µM | 10.9 µM and 6.25 µM | 10.7 µM and 11.3 µM | 3.8 µM and 2.51 µM | 4.32 µM and 2.83 µM | 4.37 µM and 4.04 µM | 2.87 µM and 2.44 µM | 2.65 µM and 2.04 µM | 1.84 µM and 1.74 µM | 3.71 µM and 2.22 µM | 2.92 µM and 3.27 µM | 3.17 µM and 2.91 µM | 2.33 µM and 2.34 µM
COC(=O)[C@H]1[C@H]2C[C@@H]3c4[nH]c5cc(OC)ccc5c4CCN3C[C@H]2C[C@@H](OC(=O)/C=C/c2cc(OC)c(OC)c(OC)c2)[C@@H]1OC | > 100 µM | 5.62 µM | 38.4 µM | 24.9 µM | 56.7 µM | 9.57 µM | 26.8 µM | 15.5 µM |  | 21.5 µM | 14.1 µM | 1.48 µM | 19.3 µM | 3.18 µM | 3.97 µM | 3.66 µM |  | 4.05 µM | 3.24 µM | 5.54 µM
CCCCN(CC)c1ncnc2ccc(Br)cc12 |  | 63.8 µM | 51.1 µM | 38.3 µM | 49.8 µM | 36.2 µM | 29 µM | 33.4 µM |  | 40.3 µM |  | 19 µM | 20.5 µM | 15.8 µM | 8.7 µM | 16.1 µM |  | 14.5 µM | 10.4 µM | 17.8 µM
Cc1c(Cl)cccc1NC(=O)/C(Cl)=C(\Cl)C(=O)O |  | 44.5 µM | > 100 µM | 37.9 µM | 30.6 µM | 27.4 µM | 33.9 µM | 38.2 µM | 38 µM | 31.3 µM |  |  |  |  |  |  |  |  |  | 
CSc1nsc(S/C=C\C(=O)c2ccc(C)cc2)n1 | 49.7 µM |  | > 100 µM | 40.4 µM | 49.6 µM | 25.7 µM | 51.5 µM | 6.88 µM | > 57.1 µM | 31.8 µM | 22.5 µM |  | 22.7 µM | 13 µM | 21.8 µM | 0.706 µM | 19 µM | 17.6 µM | 6.37 µM | 18.2 µM
Cc1ccc(/C=C2/NC(=S)SC2=O)cc1 | > 100 µM |  |  | > 100 µM | > 100 µM | > 100 µM | 51.1 µM | > 100 µM | > 100 µM | > 100 µM |  |  |  |  |  |  |  |  |  | 
COc1cc(C2c3cc4c(cc3[C@@H](OCCN(C)C)C3COC(=O)[C@H]23)OCO4)cc(OC)c1O (some centres undefined) | 6.07 µM |  | > 100 µM | 0.998 µM | 4.26 µM | 7.33 µM | 1.33 µM | 1.42 µM | 2.43 µM | 0.197 µM |  |  |  |  |  |  |  |  |  | 
CCOC(=O)c1c(-c2ccccc2)c(C(OC(c2ccccc2)c2c(-c3ccccc3)c(C(=O)OCC)n3ccccc23)c2ccccc2)c2ccccn12 (centres undefined) | > 100 µM | > 100 µM | > 100 µM | > 100 µM | > 100 µM | > 100 µM | > 100 µM |  | > 100 µM | > 100 µM |  |  |  |  |  |  |  |  |  | 
COc1cc(C2c3cc4c(cc3[C@@H](N(C)C)[C@H]3COC(=O)C23)OCO4)cc(OC)c1O (some centres undefined) | > 100 µM | > 100 µM | > 100 µM |  | > 100 µM | > 100 µM | 99 µM | 86.5 µM | > 100 µM | > 100 µM |  |  |  |  |  |  |  |  |  | 
COC(=O)c1ccc(C(=O)OC)c2nc3cc(C)ccc3nc12 | > 100 µM | > 100 µM | > 100 µM | > 100 µM | > 100 µM |  | > 100 µM | > 100 µM | > 100 µM | > 100 µM |  |  |  |  |  |  |  |  |  | 
CS(=O)(=O)NNS(=O)(=O)c1ccc(Cl)cc1 | > 100 µM | > 100 µM | > 100 µM | > 100 µM |  | > 100 µM | > 100 µM | > 100 µM | > 100 µM | > 100 µM |  |  |  |  |  |  |  |  |  | 
CNCCNc1nc2ccccc2c2c(=O)c3cc(OC)ccc3sc12 | 3.16 µM | 3.46 µM |  | 3.36 µM | 3.27 µM | 2.62 µM | 2.97 µM | 3.09 µM | 3.26 µM | 2.93 µM | 1.69 µM | 1.76 µM | 1.8 µM | 1.34 µM | 1.5 µM | 1.71 µM | 1.52 µM | 1.58 µM |  | 1.82 µM
Nc1ccc(C(=O)CC2(O)C(=O)Nc3c(Cl)cc(Cl)cc32)cc1 (centres undefined) | > 100 µM | > 100 µM | > 100 µM | > 100 µM | > 100 µM | > 100 µM |  |  | > 100 µM | > 100 µM |  |  |  |  |  |  |  |  |  | 
Cn1cc(C2=C(c3cn(C)c4cc(N)ccc34)C(=O)NC2=O)c2ccccc21 |  | > 11.2 µM | > 23.8 µM | > 25 µM | > 21.9 µM | > 25 µM | > 15 µM | 5.76 µM | 6.8 µM | 12.1 µM |  | 1.02 µM | 8.13 µM | 1.28 µM | 1.39 µM | 1.09 µM | 1.07 µM | 2.59 µM | 0.396 µM | 0.909 µM
